Patent US11873298B2, “Compounds and uses thereof” (JANSSEN PHARMACEUTICA NV, priority 2017, dated 2024)

Assays:
Ole1 = biological target: T1, Ole1 (Saccharomyces cerevisiae, UniProt P21147); experiment: Growth inhibition of yeast strain expressing Ole1 as sole desaturase; format: cell-based; settings: yeast strain expressing Ole1 as sole desaturase
T1 construct: expressed in transfected cells; host or cells: S. cerevisiae ole1Δ strain (W303 pdr1Δ pdr3Δ background), plasmid pRS316 with TDH3 promoter and CYC1 terminator
T1 sequence (P21147 1-510): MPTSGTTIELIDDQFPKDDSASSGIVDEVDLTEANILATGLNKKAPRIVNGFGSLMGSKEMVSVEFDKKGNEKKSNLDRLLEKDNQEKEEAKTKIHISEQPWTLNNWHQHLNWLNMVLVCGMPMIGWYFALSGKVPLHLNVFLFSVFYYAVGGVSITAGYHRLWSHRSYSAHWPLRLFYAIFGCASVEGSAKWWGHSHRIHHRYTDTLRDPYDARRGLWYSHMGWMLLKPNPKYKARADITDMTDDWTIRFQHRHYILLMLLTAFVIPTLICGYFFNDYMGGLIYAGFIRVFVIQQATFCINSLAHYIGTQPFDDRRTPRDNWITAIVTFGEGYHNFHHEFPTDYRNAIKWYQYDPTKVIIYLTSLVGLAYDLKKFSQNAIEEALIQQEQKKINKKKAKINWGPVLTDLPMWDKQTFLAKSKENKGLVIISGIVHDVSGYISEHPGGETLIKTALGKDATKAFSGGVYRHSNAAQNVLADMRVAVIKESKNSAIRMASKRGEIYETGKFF
In short: (§1)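 ole1Δ yeast (W303 pdr1Δ pdr3Δ background) carrying plasmid-borne Ole1, SCD1 or SCD5, grown in uracil-free media; cultures pre-grown in raffinose, seeded at 2× density 0.02 in galactose media with compound. Growth read as OD600 after 24 h at 30° C. for Ole1, 40 h for SCD1/SCD5.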

SCD5 = biological target: T2, SCD5 (Homo sapiens, UniProt Q86SK9); experiment: Growth inhibition of humanized yeast strain expressing SCD5 as sole desaturase; format: cell-based; settings: humanized yeast strain expressing SCD5
T2 construct: host or cells: S. cerevisiae ole1Δ strain (W303 pdr1Δ pdr3Δ background), plasmid pRS316 with TDH3 promoter and CYC1 terminator
T2 sequence (Q86SK9 1-330): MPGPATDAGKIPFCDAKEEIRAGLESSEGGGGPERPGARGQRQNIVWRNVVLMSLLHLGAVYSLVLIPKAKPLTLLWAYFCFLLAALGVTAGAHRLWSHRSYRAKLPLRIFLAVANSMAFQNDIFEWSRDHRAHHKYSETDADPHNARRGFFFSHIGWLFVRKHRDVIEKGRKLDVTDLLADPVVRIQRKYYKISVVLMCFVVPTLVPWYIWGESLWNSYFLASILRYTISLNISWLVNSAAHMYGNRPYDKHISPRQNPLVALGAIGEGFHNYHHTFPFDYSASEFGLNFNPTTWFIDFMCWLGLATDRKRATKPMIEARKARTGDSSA
In short: as §1

SCD1 = biological target: T3, SCD1 (Homo sapiens, UniProt O00767); experiment: Growth inhibition of humanized yeast strain expressing SCD1 as sole desaturase; format: cell-based; settings: humanized yeast strain expressing SCD1
T3 construct: host or cells: S. cerevisiae ole1Δ strain (W303 pdr1Δ pdr3Δ background), plasmid pRS316 with TDH3 promoter and CYC1 terminator
T3 sequence (O00767 1-359): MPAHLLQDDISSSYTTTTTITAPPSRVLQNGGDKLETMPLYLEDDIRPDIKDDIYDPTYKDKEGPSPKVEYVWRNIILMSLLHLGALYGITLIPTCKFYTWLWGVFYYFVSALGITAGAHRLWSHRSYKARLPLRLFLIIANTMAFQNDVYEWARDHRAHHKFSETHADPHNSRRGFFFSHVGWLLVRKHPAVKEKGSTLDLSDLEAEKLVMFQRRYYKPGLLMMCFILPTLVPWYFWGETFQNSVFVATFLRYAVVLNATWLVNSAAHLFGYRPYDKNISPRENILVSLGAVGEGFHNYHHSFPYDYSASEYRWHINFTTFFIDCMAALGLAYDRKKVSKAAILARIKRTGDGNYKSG
In short: as §1

[1] = tested on: yeast strains expressing the human α-synuclein; experiment: Yeast α-synuclein toxicity rescue assay (OD600 growth); settings: 40 h; for EC50: read-out: α-Syn EC50; for Emax: read-out: α-Syn Emax
Source text: The induced expression of α-synuclein and ApoE4 confers cytotoxicity, thus enabling the identification of compounds that can restore cell viability. This instantaneous/synchronous induction of α-synuclein and ApoE4 can be achieved due to the following expression control. In glucose-containing media, gene expression from the GAL1 promoter is ‘off’ and actively repressed by additional epigenetic factors. In raffinose, expression is ‘off’, but the promoter not actively repressed. Upon transition to galactose-containing media, the promoter is instantaneously turned ‘on’ to achieve robust and synchronous induction of α-synuclein or ApoE4 expression. This highly regulated induction provides a robust window for the determination of both efficacy (amplitude of protective effect) and potency (concentration of protective effect) of cytoprotective compounds.
Re-suspended compound stocks were subsequently arrayed into 384 well compound plates using automated pipetting. All other wells not receiving stock compound were filled with 10 μL of 100% DMSO using an automated plate filler (Multidrop Combi). An 11 point, 2-fold serial dilution was then performed using the robotic platform. Compound assay plates were covered with foil and stored at −20° C. until use.
Each strain was handled according to standard protocols and cultured in media composed of CSM (complete synthetic media), YNB (yeast nitrogenous base), and a 2% (w/v) carbon source (either glucose, raffinose, or galactose).
In a standard yeast assay, a single-use aliquot of cells was thawed on ice and diluted into CSM/glucose (5 mL). Cultures were grown for 8 hours at 30° C. This pre-growth enables the yeast to exit the thaw and begin to grow without expressing aSyn or ApoE4. After 8 hours, cell density (OD600) was determined and cultures diluted to an OD600 of 0.01 in CSM/raffinose for an overnight culture phase at 30° C. During this period, the active glucose repression of the GAL1 promoter was relieved; however, expression of the α-Syn/ApoE4 genes were not yet induced. After ˜16 hours of growth, cultures attain an OD600 of 0.4-0.8 and were ready to apply to assay plates containing compound.
Compound profiling assays were executed in clear-bottom 384 well plates. First, compound plates were thawed at room temperature for 45′, centrifuged at 1,000×g for 1 minute, and the foil removed. Clear 384 well assay plates were then filled with 15 μL of CSM/galactose. […] The pin tool was washed iteratively with both 50% DMSO and 100% ethanol between each assay plate. After delivering compound to each assay plate, the overnight CSM/raffinose aSyn or ApoE4 cultures were added at a 2X cell density (0.04 for aSyn and 0.08 for ApoE4) in CSM/galactose to achieve a final assay OD600 of 0.02 and 0.04 for aSyn and ApoE, respectively. The cultures (15 μL per well) were then dispensed to the compound -containing 384 well assay plates using an automated plate filler. Plates were incubated in a humidified 30° C. incubator for 40 or 24 hours for aSyn and ApoE4, respectively. The ODsoo of each assay plate was then read with a microplate reader (e.g., Perkin Elmer Envision).
The efficacy and potency of compounds were calculated according to the following. Raw data (OD600 values) were first background corrected to account for OD600 contributed by the plate and media itself. The efficacy (percent above DMSO, herein referred to as “Emax”) was calculated according to the equation: (Experimental well−DMSO control well)/(DMSO control well)*100. […] Normalized dose-response data was fit with a logistic regression curve using Spotfire (TIBCO), or similar curve-fitting software package. EC50 values were then reported along with EMax to provide both efficacy and potency measures for each analog and enable further compound design.

Compound | IC50 (Ole1) [µM] | IC50 (SCD5) [µM] | IC50 (SCD1) [µM] | EC50 [1] [µM] | Emax [1] [%] | OLE1 % Max Inhibition (Ole1) [%] | SCD5 % Max Inhibition (SCD5) [%] | SCD1 % Max Inhibition (SCD1) [%]
CCOc1ccc(-c2noc(C3CCN(C(=O)c4cc(-c5ccccc5)no4)CC3)n2)cc1OC [compound 92] | > 45 | > 45 | > 45 | 2.5 | 187 |  |  | 
Cc1nn(C)c2ccc(-c3noc(C4CCN(C(=O)N5CCCCC5)CC4)n3)cc12 [Compound 117] | > 45 | 36.1 | > 45 | 7.5 | 124 | 92.97 | 54.63 | 95.94
O=C(NCC(=O)N1CCC(c2nc(-c3ccc4nsnc4c3)no2)CC1)c1ccccc1 [Compound 104] | > 45 | > 45 | > 45 | 1.87 | 253 | 110.40 | 77.11 | 76.89
COc1ccccc1-c1noc(C2CCN(C(=O)CNC(=O)c3ccccc3)CC2)n1 [compound 12] | > 45 | > 45 | > 45 | 16.2 | 43 |  |  | 
COc1ccc(-c2noc(C3CCN(C(=O)C4CC(=O)N(C5CCCCC5)C4)CC3)n2)cc1OC (stereo not drawn) [Compound 125] | > 45 | > 45 | > 45 | 16.7 | 200 | 92.36 | 94.83 | 77.68
Cc1nn(C)c2nc(-c3noc(C4CCN(C(=O)CN5Cc6ccccc6C5=O)CC4)n3)ccc12 [Compound 146] | > 45 | > 45 | 37.8 | 1.94 | 516 | 3.28 | 25.62 | 60.81
Cc1nn(C)c2nc(-c3noc(C4CCN(C(=O)C5CC(=O)N(c6ccccc6)C5)CC4)n3)ccc12 (stereo not drawn) [Compound 116] | > 45 | > 45 | > 45 | 9.04 | 345 | 12.75 | 8.35 | 71.12
COc1ccc(CN2CC(C(=O)N3CCC(c4nc(-c5ccc6c(C)nn(C)c6c5)no4)CC3)CC2=O)c(OC)c1 (stereo not drawn) [Compound 124] | > 45 | > 45 | > 45 | 17.7 | 395 | 4.55 | 96.23 | 88.87
COc1ccc(-c2noc(C3CCN(C(=O)CNC(=O)c4ccccn4)CC3)n2)cc1OC [Compound 145] | 15.8 | > 45 | > 45 | 0.1 | 432 | 51.17 | 86.51 | 78.31
COc1ccc(-c2noc(C3CCN(CCNC(=O)c4ccccc4)CC3)n2)cc1OC [Compound 32] | > 45 | > 45 | > 45 | 9.88 | 41 | 108.22 | 80.17 | 84.16
Cc1nn(C)c2cc(-c3noc(C4CCN(C(=O)C5CC(=O)N(c6ccccc6)C5)CC4)n3)ccc12 (stereo not drawn) [compound 89] | > 45 | > 45 | > 45 | 0.165 | 580 |  |  | 
COc1ccc(-c2noc(C3CCN(C(=O)CNC(=O)c4ccccc4OC)CC3)n2)cc1OC [Compound 144] | > 45 | > 45 | > 45 | 0.521 | 537 | 100.96 | 84.27 | 79.00
Cn1c(=O)[nH]c2ccc(-c3noc(C4CCN(C(=O)C5CC(=O)N(c6ccccc6)C5)CC4)n3)cc21 (stereo not drawn) [Compound 134] | > 45 | > 45 | > 45 | 14 | 357 | 93.94 | 98.55 | 107.77
CCN1CCOc2cc(-c3noc(C4CCN(C(=O)CNC(=O)c5ccccc5)CC4)n3)ccc21 [Compound 110] | > 45 | > 45 | > 45 | 4.49 | 374 | 96.31 | 65.07 | 66.85
Cc1ccc(-c2nc(C3CCN(C(=O)[C@@H]4CC(=O)N(c5ccc(C)c(C)c5)C4)CC3)no2)cc1 [compound 72] | > 45 | 33 | 27.3 | 12.7 | 35 |  |  | 
COc1ccccc1C(=O)NCC(=O)N1CCC(c2nc(-c3ccc4c(C)nn(C)c4c3)no2)CC1 [Compound 152] | > 45 | > 45 | > 45 | 0.134 | 474 | 2.37 | 60.91 | 83.39
CCN1C(=O)COc2cc(-c3noc(C4CCN(C(=O)CNC(=O)c5ccccc5)CC4)n3)ccc21 [Compound 111] | > 45 | > 45 | > 45 | 0.339 | 289 | 38.26 | 32.73 | 76.39
Cc1nn(C)c2cc(-c3noc(N4CCN(C(=O)CNC(=O)c5ccccc5)CC4)n3)ccc12 [compound 102] | > 45 | > 45 | > 45 | 0.284 | 411 |  |  | 
